Measurements published in patent US10617701B2, “Nutritional compositions containing phosphatidylethanolamine, sphingomyelin and docosahexaenoic acid” (Mead Johnson Nutrition Company, priority 2015, dated 2020).

Tests used:
[1] = test system: embryonic mouse cortical cells; experiment: Functional neuronal maturation of cortical networks on microelectrode arrays (MEA recording, chronic treatment); assay type: cell-based; conditions: for acute effect on neuronal network activity in vitro: cortical networks on MEAs
Method: Cortical cells were grown on multi-well microelectrode arrays (MEAs) and treated with 10 different experimental series, including different combinations of test agents (PE, SM, LF and DHA) and the activity was recoded at 4 different time points during the 4 weeks of functional neuronal maturation Cells growing on glass slides were treated in parallel for morphological and cell population analysis. These experiments aimed to elucidate whether the test compounds affect the functional and morphological neuronal maturation […] (see FIG. 1).
All experiments were performed according to the standard operating protocols (SOPs): “SOP Preparation Frontal Cortex Mouse—Serum,” “SOP Solutions for Neuronal Cell Culture,” “SOP Cleaning and Substrate Preparations of MEAs,” “SOP Feeding neuronal cell culture,” “SOP Cell culture preparation MEAs,” “SOP Plexon Recording,” “SOP Plexon Data Analysis.”
Microelectrode Array Neurochips: THE MEA neurochips were provided by the Center for Network Neuroscience (CNNS) at the University of North Texas. These 5×5 cm^2 glass chips have a dual recording matrix with 32 passive electrodes per matrix and indium tin oxide conductors. The hydrophobic insulation material surface was activated by a brief butane flame pulse through a stainless steel mask. Thus, cell attachment on a confined adhesive region (5 mm diameter centered on the electrode array) is ensured. The activated surface regions were coated with poly-D-lysine (25 microgram/mL; 30-70 kD) and incubated overnight. […]
Primary cell culture for MEA recordings: In brief, frontal cortex tissue was harvested from embryonic day […] NMRI mice. […] Cultures on MEAs were incubated at 37° C. in a 10% CO2 atmosphere until ready for use, which usually is four weeks to three months after seeding. […]
Multichannel Recording: After establishing a stable activity pattern after 4 weeks, the neuronal networks on MEA chips are employed for substance testing. […] The signals routinely recorded by these neurochips are located in a range of 15-1800 […] . […]

[2] = test system: embryonic mouse cortical cells; experiment: Immunocytochemistry / fluorescence image analysis of neuronal network morphology (neuron number, % neurons, synaptic density); assay type: cell-based; conditions: chronic treatment over 4 weeks
Method: Primary Cell culture for immunocytochemistry and Fluorescence staining: The chronically treated cultures were grown on 24-well plates on 13 mm glass cover slides and cultured with PNGM medium including 5% FCS and gentamycin+ampicillin. The cells were treated 2× per week during ⅓ medium exchange. The complete concentration of phospholipids was replenished every time.
Immunocytochemistry and Fluorescence staining: These 24 well-plate cultures were analyzed by immunocytochemistry, fluorescence microscopy and semiautomatic quantitative image analysis at 7, 14, 21, and 28 days. […] Cortical networks were embedded with Prolong anti-fade gold (Invitrogen, Darmstadt, Germany) and images acquired with an upright fluorescence microscope (Nikon Eclipse TE200, NikonAG, Tokyo, Japan).
Image analysis: These images were analyzed by semi-automatic image quantification tools (MS Excel macro-based in house analyses; ImageJ, Rawak Software, NIH, USA). […]
The repeated treatment with LF+PE+SM+DHA affects development of neuronal network morphology: The recorded networks were fixed after the final 28 div recording and immunostained for neuronal markers. Images were taken and the cell neuronal numbers quantified by semi-automatic image analyses.

Substance	acute effect on neuronal network activity in vitro [1]	developmental halt at later stages ([1]; repeated treatment 2x per week, DHA 20 μM, PE 100 nM, LF 300 nM, SM 100 nM, recorded at 7-10, 14, 21 and 28 div, FIG. 2)	synaptic density [2]
phosphatidylethanolamine [PE]	acutely affect neuronal network activity	–	–
sphingomyelin [SM]	acutely affect neuronal network activity	developmental halt at later stages	able to increase the synaptic density
